Data as given in patent US5202315A, “Cephalosporin compounds” (Lucky, Ltd., priority 1989, dated 1993).
Converted amounts (≈) assume the structure as drawn. Where two headings read alike, the source gives them in different places.

Experiments:
Assay in all cases: Antibacterial activity, MIC
Assay type in all cases: cell-based
[1] = tested on: Acinetobacter calcoaceticus ATCC 15473; conditions: ATCC15473, ATCC 15473, agar two-fold dilution, 37° C., 20 hours, read-out: MIC
Procedure: (§1) Also, the in vitro antibacterial activity was determined by the by a two-fold dilution method as described below:
(§2) That is, the two-fold serial dilutions of the compound were made dispersed in Muller-Hinton agar medium. 2 μl of standard test strain which had the 10^7 CFU per ml was inoculated on the medium, and was incubated at 37° C. for 20 hours.

[2] = tested on: Bacillus cereus ATCC 11778; conditions: ATCC11778, ATCC 11778, agar two-fold dilution, 37° C., 20 hours, read-out: MIC
Procedure: as §1, §2

[3] = tested on: Bacillus megaterium ATCC 9885; conditions: Priestia megaterium, ATCC9885; ATCC 9885; agar two-fold dilution, 37° C., 20 hours; read-out: MIC
Procedure: as §1, §2

[4] = tested on: Citrobacter freundii ATCC 8090; conditions: ATCC8090, ATCC 8090, agar two-fold dilution, 37° C., 20 hours, read-out: MIC
Procedure: as §1, §2

[5] = tested on: Enterobacter aerogenes ATCC 29751; conditions: Klebsiella aerogenes, ATCC29751; ATCC 29751; agar two-fold dilution, 37° C., 20 hours; read-out: MIC
Procedure: as §1, §2

[6] = tested on: Enterobacter cloacae ATCC 27508; conditions: ATCC27508, ATCC 27508, agar two-fold dilution, 37° C., 20 hours, read-out: MIC
Procedure: as §1, §2

[7] = tested on: Escherichia coli ATCC 10536; conditions: ATCC10536, agar two-fold dilution, 37° C., 20 hours
Procedure: as §1, §2

[8] = tested on: Escherichia coli ATCC 25922; conditions: ATCC25922, agar two-fold dilution, 37° C., 20 hours
Procedure: as §1, §2

[9] = tested on: Klebsiella pneumoniae ATCC 10031; conditions: ATCC10031, ATCC 10031, agar two-fold dilution, 37° C., 20 hours, read-out: MIC
Procedure: as §1, §2

[10] = tested on: Micrococcus luteus ATCC 9341; conditions: ATCC9341, ATCC 9341, agar two-fold dilution, 37° C., 20 hours, read-out: MIC
Procedure: as §1, §2

[11] = tested on: Morganella morganii ATCC 8076h; conditions: ATCC8076H, agar two-fold dilution, 37° C., 20 hours
Procedure: as §1, §2

[12] = tested on: Proteus mirabilis ATCC 25933; conditions: ATCC25933, ATCC 25933, agar two-fold dilution, 37° C., 20 hours, read-out: MIC
Procedure: as §1, §2

[13] = tested on: Proteus vulgaris ATCC 6059; conditions: ATCC6059, ATCC 6059, agar two-fold dilution, 37° C., 20 hours, read-out: MIC
Procedure: as §1, §2

[14] = tested on: Providencia rettgeri ATCC 9250; conditions: ATCC9250, agar two-fold dilution, 37° C., 20 hours
Procedure: as §1, §2

[15] = tested on: Pseudomonas aeruginosa ATCC 10145; conditions: ATCC10145, ATCC 10145, agar two-fold dilution, 37° C., 20 hours, read-out: MIC
Procedure: as §1, §2

[16] = tested on: Pseudomonas aeruginosa ATCC 25619; conditions: ATCC25619, ATCC 25619, agar two-fold dilution, 37° C., 20 hours, read-out: MIC
Procedure: as §1, §2

[17] = tested on: Pseudomonas aeruginosa ATCC 27853; conditions: ATCC27853, ATCC 27853, agar two-fold dilution, 37° C., 20 hours, read-out: MIC
Procedure: as §1, §2

[18] = tested on: Salmonella typhimurium ATCC 14028; conditions: Salmonella enterica; ATCC 14028; agar two-fold dilution, 37° C., 20 hours; read-out: MIC
Procedure: as §1, §2

[19] = tested on: Serratia marcescens ATCC 27117; conditions: ATCC27117, ATCC 27117, agar two-fold dilution, 37° C., 20 hours, read-out: MIC
Procedure: as §1, §2

[20] = tested on: Shigella flexneri ATCC 11836; conditions: ATCC11836, agar two-fold dilution, 37° C., 20 hours
Procedure: as §1, §2

[21] = tested on: Shigella sonnei ATCC 11060
Procedure: as §1, §2

[22] = tested on: Staphylococcus aureus ATCC 10537; conditions: ATCC10537, ATCC 10537, agar two-fold dilution, 37° C., 20 hours, read-out: MIC
Procedure: as §1, §2

[23] = tested on: Staphylococcus aureus ATCC 6538p; conditions: ATCC6538P, ATCC 6538p, agar two-fold dilution, 37° C., 20 hours, read-out: MIC
Procedure: as §1, §2

[24] = tested on: Staphylococcus epidermidis ATCC 12228; conditions: ATCC12228, ATCC 12228, agar two-fold dilution, 37° C., 20 hours, read-out: MIC
Procedure: as §1, §2

Row | SMILES | MIC [1] [µg/mL] | MIC [2] [µg/mL] | MIC [3] [µg/mL] | MIC [4] [µg/mL] | MIC [5] [µg/mL] | MIC [6] [µg/mL] | MIC [7] [µg/mL] | MIC [8] [µg/mL] | MIC [9] [µg/mL] | MIC [10] [µg/mL] | MIC [11] [µg/mL] | MIC [12] [µg/mL] | MIC [13] [µg/mL] | MIC [14] [µg/mL] | MIC [15] [µg/mL] | MIC [16] [µg/mL] | MIC [17] [µg/mL] | MIC [18] [µg/mL] | MIC [19] [µg/mL] | MIC [20] [µg/mL] | further results
1 | CO/N=C(\C(=O)NC1C(=O)N2C(C(=O)[O-])=C(CSc3nc(N)cc(N)[n+]3C)CSC12)c1csc(N)n1 (stereo not drawn) [Compound I-10] | 8 (≈ 14.5 µM) | 32 (≈ 58 µM) | 0.25 (≈ 0.453 µM) | 0.063 (≈ 0.114 µM) | 0.5 (≈ 0.906 µM) | ≤ 0.008 | 0.063 (≈ 0.114 µM) | 0.063 (≈ 0.114 µM) | 0.016 (≈ 0.029 µM) | 0.063 (≈ 0.114 µM) | ≤ 0.008 | 0.13 (≈ 0.236 µM) | 0.13 (≈ 0.236 µM) | ≤ 0.008 | 32 (≈ 58 µM) | 2 (≈ 3.63 µM) | 8 (≈ 14.5 µM) | 0.25 (≈ 0.453 µM) | 0.063 (≈ 0.114 µM) | 0.016 (≈ 0.029 µM) | MIC ([21]; ATCC11060, ATCC 11060, agar two-fold dilution, 37° C., 20 hours, read-out: MIC): 0.063 µg/mL (≈ 0.114 µM); MIC [22]: 0.25 µg/mL (≈ 0.453 µM); MIC [23]: 0.25 µg/mL (≈ 0.453 µM); MIC [24]: 0.13 µg/mL (≈ 0.236 µM)
2 | CCO/N=C(\C(=O)NC1C(=O)N2C(C(=O)[O-])=C(CSc3nc(N)cc(N)[n+]3C)CSC12)c1csc(N)n1 (stereo not drawn) [Compound I-11] | 4 (≈ 7.07 µM) | 32 (≈ 56.6 µM) | 0.13 (≈ 0.23 µM) | 0.063 (≈ 0.111 µM) | 0.5 (≈ 0.884 µM) | ≤ 0.008 | 0.13 (≈ 0.23 µM) | 0.13 (≈ 0.23 µM) | 0.016 (≈ 0.0283 µM) | 0.016 (≈ 0.0283 µM) | ≤ 0.008 | 0.25 (≈ 0.442 µM) | 0.25 (≈ 0.442 µM) | ≤ 0.008 | 8 (≈ 14.1 µM) | 2 (≈ 3.54 µM) | 4 (≈ 7.07 µM) | 0.25 (≈ 0.442 µM) | 0.13 (≈ 0.23 µM) | 0.031 (≈ 0.0548 µM) | MIC ([21]; ATCC11060, 20 h): 0.13 µg/mL (≈ 0.23 µM); MIC [22]: 0.25 µg/mL (≈ 0.442 µM); MIC [23]: 0.25 µg/mL (≈ 0.442 µM); MIC [24]: 0.063 µg/mL (≈ 0.111 µM)
